We go through 20 molecules from patent publication US9365574B2, “Soluble guanylate cyclase activators” (Merck Sharp & Dohme Corp., priority 2010, dated 2016).

The subject of the assay is Spontaneously hypertensive rats (SHR). Briefly: Acute Efficacy in Spontaneously Hypertensive Rats (SHR), telemetry blood pressure. The format is in vivo, rat. An excerpt: Acute Efficacy in Spontaneously Hypertensive Rats (SHR)
Spontaneously hypertensive rats (SHR, male, Charles River) were implanted with DSI TA11PA-C40 telemetry device (Data Sciences, Inc., St. Paul, Minn.) under isoflurane or ketamine/metomidine anesthesia. The telemetry unit catheter was inserted into the descending aorta via the femoral artery and the telemetry device was implanted subcutaneously in the left flank area. Animals were allowed to recover from surgery for 14 days before the start of any studies. Blood pressure, heart rate, and activity signals from conscious, freely moving rats were recorded continuously for 30 seconds every 10 minutes. On the day prior to administration of compound, a single oral dose of vehicle (10% transcutol/20% Cremophor/70% water) was administered to all animals to establish baseline control data. The blood pressure lowering efficacy of compound (PO) or vehicle was evaluated following a single oral gavage. Data were collected as hourly averages, and changes in blood pressure were calculated by subtracting control baseline data on an hourly basis. Animals were maintained on normal diet with a 12 hour light-dark cycle.
Maximum peak decreases of systolic blood pressure (SBP) in SHR at a particular P.O. dose (mpk milligrams per kilogram) for the following representative compounds are provided.

In the case of `COc1ccc2c(-c3nc(N)c4c(n3)NC(=O)C4(C)C(=O)NC3CC3)nn(CCC(F)(F)C(F)(F)F)c2n1` (centres unmarked) [Example 178, 4-Amino-N-Cyclopropyl-2-(6-Methoxy-1-(3,3,4,4,4-Pentafluorobutyl)-1H-Pyrazolo[3,4-B]Pyridin-3-yl)-5-Methyl-6-Oxo-6,7-Dihydro-5H-Pyrrolo[2,3-D]Pyrimidine-5-Carboxamide], for the setting “single oral dose 0.1 mpk P.O.”, the “Maximum peak decrease of systolic blood pressure (SBP) in SHR, Category” value (“Maximum peak decrease” for short) is “A (Category A=SBP in SHRs<25 mmHg)”.

Take `CC1(NCC2CC2)C(=O)Nc2nc(-c3nn(CCC(F)(F)C(F)(F)F)c4ncccc34)nc(N)c21` (centres unmarked) [Example 174, 4-Amino-5-[(Cyclopropylmethyl)Amino]-5-Methyl-2-[1-(3,3,4,4,4-Pentafluorobutyl)-1H-Pyrazolo[3,4-B]Pyridin-3-yl]-5,7-Dihydro-6H-Pyrrolo[2,3-D]Pyrimidin-6-One]: the “Maximum peak decrease” value (single oral dose 0.3 mpk P.O.) was “B (Category B=SBP in SHRs 25-40 mmHg)”.

Take `CC1(C(=O)NC2CC2)C(=O)Nc2nc(-c3nn(CCC(F)F)c4ncccc34)nc(N)c21` (centres unmarked) [Example 238, 4-amino-N-cyclopropyl-2-[1-(3,3-difluoropropyl)-1H-pyrazolo[3,4-b]pyridin-3-yl]-5-methyl-6-oxo-6,7-dihydro-5H-pyrrolo[2,3-d]pyrimidine-5-carboxamide]: under “single oral dose 0.3 mpk P.O.”, the “Maximum peak decrease” value is “B (Category B=SBP in SHRs 25-40 mmHg)”. For the molecule `CC1(c2nncs2)C(=O)Nc2nc(-c3nn(CCC(F)(F)C(F)(F)F)c4ncccc34)nc(N)c21` (centres unmarked) [Example 168, 4-Amino-5-Methyl-2-[1-(3,3,4,4,4-Pentafluorobutyl)-1H-Pyrazolo[3,4-B]Pyridin-3-yl]-5-(1,3,4-Thiadiazol-2-yl)-5,7-Dihydro-6H-Pyrrolo[2,3-D]Pyrimidin-6-One], the “Maximum SBP reduction” value (dose 0.3 mpk) was found to be 19 ± 9 mmHg. Moreover, the “Maximum peak decrease” value (single oral dose 0.3 mpk P.O.) is recorded as “A (Category A=SBP in SHRs<25 mmHg)”. As to `CC1(CC#N)C(=O)Nc2nc(-c3nn(CCC(F)(F)C(F)(F)F)c4cc(Cl)ccc34)nc(N)c21` (centres unmarked) [Example 175, {4-Amino-2-[6-Chloro-1-(3,3,4,4,4-Pentafluorobutyl)-1H-Indazol-3-yl]-5-Methyl-6-Oxo-6,7-Dihydro-5H-Pyrrolo[2,3-D]Pyrimidin-5-yl}Acetonitrile], the “Maximum peak decrease” value (single oral dose 0.3 mpk P.O.) is “B (Category B=SBP in SHRs 25-40 mmHg)”. For `Cc1nnc(C2(C)C(=O)Nc3nc(-c4nn(CCC(F)(F)C(F)(F)F)c5ncc(Cl)cc45)nc(N)c32)o1` (centres unmarked) [Example 269, 4-amino-2-[5-chloro-1-(3,3,4,4,4-pentafluorobutyl)-1H-pyrazolo[3,4-b]pyridin-3-yl]-5-methyl-5-(5-methyl-1,3,4-oxadiazol-2-yl)-5,7-dihydro-6H-pyrrolo[2,3-d]pyrimidin-6-one], the “Maximum peak decrease” value (single oral dose 0.3 mpk P.O.) was “C (Category C=SBP in SHRs>40 mmHg)”. Regarding `CCC1(C(N)=O)C(=O)Nc2nc(-c3nn(CCC(F)(F)C(F)(F)F)c4ncccc34)nc(N)c21` (centres unmarked) [Example 241, 4-amino-5-ethyl-6-oxo-2-[1-(3,3,4,4,4-pentafluorobutyl)-1H-pyrazolo[3,4-b]pyridin-3-yl]-6,7-dihydro-5H-pyrrolo[2,3-d]pyrimidine-5-carboxamide], the “Maximum peak decrease” value (single oral dose 1 mpk P.O.) is given as “B (Category B=SBP in SHRs 25-40 mmHg)”. Turning to `CC1(C(=O)NC2CC2)C(=O)Nc2nc(-c3nc(CCC(F)(F)C(F)(F)F)n4cc(F)ccc34)nc(N)c21` (centres unmarked) [Example 252, 4-amino-H-cyclopropyl-2-[6-fluoro-3-(3,3,4,4,4-pentafluorobutyl)imidazo[1,5-a]pyridin-1-yl]-5-methyl-6-oxo-6,7-dihydro-5H-pyrrolo[2,3-d]pyrimidine-5-carboxamide], where the note is “single oral dose 0.3 mpk P.O.”, the “Maximum peak decrease” value is reported as “B (Category B=SBP in SHRs 25-40 mmHg)”. For the molecule `Cn1ccc(NC(=O)C2(C)C(=O)Nc3nc(-c4nn(CCOC(F)(F)F)c5ncccc45)nc(N)c32)n1` (centres unmarked) [Example 210, 4-amino-5-methyl-N-(1-methyl-1H-pyrazol-3-yl)-6-oxo-2-{1-[2-(trifluoromethoxy)ethyl]-1H-pyrazolo[3,4-b]pyridin-3-yl}-6,7-dihydro-5H-pyrrolo[2,3-d]pyrimidine-5-carboxamide], the “Maximum peak decrease” value (single oral dose 0.3 mpk P.O.) was “B (Category B=SBP in SHRs 25-40 mmHg)”. For `CC1(c2nnc(C3CC3)o2)C(=O)Nc2nc(-c3nn(CCCC(F)(F)F)c4ncccc34)nc(N)c21` (centres unmarked) [Example 225, 4-amino-5-(5-cyclopropyl-1,3,4-oxadiazol-2-yl)-5-methyl-2-[1-(4,4,4-trifluorobutyl)-1H-pyrazolo[3,4-b]pyridin-3-yl]-5,7-dihydro-6H-pyrrolo[2,3-d]pyrimidin-6-one], the “Maximum peak decrease” value (single oral dose 0.3 mpk P.O.) is listed as “C (Category C=SBP in SHRs>40 mmHg)”.

`CC1(c2ccccc2)C(=O)Nc2nc(-c3nc(CCC(F)(F)C(F)(F)F)c4ncccn34)nc(N)c21` (centres unmarked) [Example 191, 4-Amino-5-Methyl-2-[8-(3,3,4,4,4-Pentafluorobutyl)Imidazo[1,5-A]Pyrimidin-6-yl]-5-Phenyl-5,7-Dihydro-6H-Pyrrolo[2,3-D]Pyrimidin-6-One]: under “single oral dose 0.3 mpk P.O.”, the “Maximum peak decrease” value is listed as “B (Category B=SBP in SHRs 25-40 mmHg)”. Consider `CC1(C(N)=O)C(=O)Nc2nc(-c3nn(CCC(F)(F)C(F)(F)F)c4cc(F)ccc34)nc(N)c21` (centres unmarked) [Example 192, 4-amino-2-[6-fluoro-1-(3,3,4,4,4-pentafluorobutyl)-1H-indazol-3-yl]-5-methyl-6-oxo-6,7-dihydro-5H-pyrrolo[2,3-d]pyrimidine-5-carboxamide], for which, where the note is “single oral dose 0.3 mpk P.O.”, the “Maximum peak decrease” value is given as “B (Category B=SBP in SHRs 25-40 mmHg)”.

`COc1ccc2c(-c3nc(N)c4c(n3)NC(=O)C4(C)C(=O)NC3CC3)nn(CCC(F)(F)F)c2n1` (centres unmarked) [Example 185, 4-Amino-N-Cyclopropyl-2-[6-Methoxy-1-(3,3,3-Trifluoropropyl)-1H-Pyrazolo[3,4-B]Pyridin-3-yl]-5-Methyl-6-Oxo-6,7-Dihydro-5H-Pyrrolo[2,3-D]Pyrimidine-5-Carboxamide]: the “Maximum SBP reduction” value (dose 1.0 mpk) turned out to be 43 ± 7 mmHg. Moreover, the “Maximum peak decrease” value (single oral dose 1 mpk P.O.) is given as “C (Category C=SBP in SHRs>40 mmHg)”.

Consider `Cc1nnc(C2(C)C(=O)Nc3nc(-c4nn(CCC(F)(F)C(F)(F)F)c5ncccc45)nc(N)c32)o1` (centres unmarked) [Example 169, 4-Amino-5-Methyl-5-(5-Methyl-1,3,4-Oxadiazol-2-yl)-2-[1-(3,3,4,4,4-Pentafluorobutyl)-1H-Pyrazolo[3,4-B]Pyridin-3-yl]-5,7-Dihydro-6H-Pyrrolo[2,3-D]Pyrimidin-6-One], for which the “Maximum SBP reduction” value (dose 0.3 mpk) is listed as 52 ± 5 mmHg. In addition, the “Maximum peak decrease” value (single oral dose 0.3 mpk P.O.) is “C (Category C=SBP in SHRs>40 mmHg)”. On to `CC1(c2nnco2)C(=O)Nc2nc(-c3nn(CCC(F)(F)C(F)(F)F)c4ncccc34)nc(N)c21` (centres unmarked) [Example 204, 4-amino-5-methyl-5-(1,3,4-oxadiazol-2-yl)-2-[1-(3,3,4,4,4-pentafluorobutyl)-1H-pyrazolo[3,4-b]pyridin-3-yl]-5,7-dihydro-6H-pyrrolo[2,3-d]pyrimidin-6-one], for which the “Maximum peak decrease” value (single oral dose 0.3 mpk P.O.) was “B (Category B=SBP in SHRs 25-40 mmHg)”. For `CC(C)NC(=O)C1(C)C(=O)Nc2nc(-c3nn(CCC(F)(F)C(F)(F)F)c4ncccc34)nc(N)c21` (centres unmarked) [Example 197, 4-amino-5-methyl-N-(1-methylethyl)-6-oxo-2-[1-(3,3,4,4,4-pentafluorobutyl)-1H-pyrazolo[3,4-b]pyridin-3-yl]-6,7-dihydro-5H-pyrrolo[2,3-d]pyrimidine-5-carboxamide], the “Maximum peak decrease” value (single oral dose 0.3 mpk P.O.) is recorded as “B (Category B=SBP in SHRs 25-40 mmHg)”. As to `CC1(C(=O)NC2CC2)C(=O)Nc2nc(-c3nn(CCC(F)(F)C(F)(F)F)c4ccccc34)nc(N)c21` (centres unmarked) [Example 194, 4-amino-N-cyclopropyl-5-methyl-6-oxo-2-[1-(3,3,4,4,4-pentafluorobutyl)-1H-indazol-3-yl]-6,7-dihydro-5H-pyrrolo[2,3-d]pyrimidine-5-carboxamide], under “single oral dose 0.3 mpk P.O.”, the “Maximum peak decrease” value is on record as “C (Category C=SBP in SHRs>40 mmHg)”. Take `CC1(CC(=O)NC2CC2)C(=O)Nc2nc(-c3nn(CCC(F)(F)C(F)(F)F)c4cc(Cl)ccc34)nc(N)c21` (centres unmarked) [Example 208, 2-{4-amino-2-[6-chloro-1-(3,3,4,4,4-pentafluorobutyl)-1H-indazol-3-yl]-5-methyl-6-oxo-6,7-dihydro-5H-pyrrolo[2,3-d]pyrimidin-5-yl}-N-cyclopropylacetamide]: the “Maximum peak decrease” value (single oral dose 1 mpk P.O.) is “A (Category A=SBP in SHRs<25 mmHg)”. Consider `Cc1nnc(C2(C)C(=O)Nc3nc(-c4nn(CCC(F)(F)F)c5cc(Cl)ccc45)nc(N)c32)o1` (centres unmarked) [Example 198, 4-amino-2-[6-chloro-1-(3,3,3-trifluoropropyl)-1H-indazol-3-yl]-5-methyl-5-(5-methyl-1,3,4-oxadiazol-2-yl)-5,7-dihydro-6H-pyrrolo[2,3-d]pyrimidin-6-one], for which the “Maximum peak decrease” value (single oral dose 0.3 mpk P.O.) was “B (Category B=SBP in SHRs 25-40 mmHg)”. As to `CC(C)n1nc(C2(C)C(=O)Nc3nc(-c4nn(CCC(F)(F)C(F)(F)F)c5cc(Cl)ccc45)nc(N)c32)oc1=S` (centres unmarked) [Example 172, 4-Amino-2-[6-Chloro-1-(3,3,4,4,4-Pentafluorobutyl)-1H-Indazol-3-yl]-5-Methyl-5-[4-(Propan-2-yl)-5-Thioxo-4,5-Dihydro-1,3,4-Oxadiazol-2-yl]-5,7-Dihydro-6H-Pyrrolo[2,3-D]Pyrimidin-6-One], the “Maximum peak decrease” value (single oral dose 0.3 mpk P.O.) is “A (Category A=SBP in SHRs<25 mmHg)”.
